Selectivity and Ki data for 14 molecules are collected here from ChEMBL document CHEMBL1132879, “High potent and selective arylpiperazine derivatives as ligands for the 5-HT1A receptor” (Bioorg Med Chem Lett, 2000).

SMILES strings stand for the structures.

Test [1] has as its target Serotonin 1a (5-HT1a) receptor/Adrenergic receptor alpha-1 (Rattus norvegicus) (UniProt P15823+P23944+P43140+P19327). The test is described as follows: Selectivity for 5-HT1A serotonin over alpha-1-adrenergic receptors. The test is classed as protein assay.
The target of test [2] is T1, 5-hydroxytryptamine receptor 1A (Rattus norvegicus, UniProt P19327).
T1 sequence (P19327 whole entry): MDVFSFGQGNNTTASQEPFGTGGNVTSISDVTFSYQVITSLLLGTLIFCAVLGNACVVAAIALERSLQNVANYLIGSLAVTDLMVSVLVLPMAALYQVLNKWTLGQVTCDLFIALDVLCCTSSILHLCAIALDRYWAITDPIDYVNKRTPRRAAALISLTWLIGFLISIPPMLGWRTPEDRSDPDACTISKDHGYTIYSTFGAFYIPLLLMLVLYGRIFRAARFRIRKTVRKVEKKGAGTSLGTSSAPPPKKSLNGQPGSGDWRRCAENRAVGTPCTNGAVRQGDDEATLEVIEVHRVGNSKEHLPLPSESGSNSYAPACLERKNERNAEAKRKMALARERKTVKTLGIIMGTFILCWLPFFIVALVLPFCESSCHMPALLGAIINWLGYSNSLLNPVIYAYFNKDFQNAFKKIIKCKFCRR
The test is described as follows: Displacement of [3H]8-OH-DPAT from 5-hydroxytryptamine 1A receptor of rat hippocampus membranes. The test is classed as cell membranes, Membrane.

The target of test [3] is T2, Adrenergic receptor alpha-1 (Rattus norvegicus, UniProt P15823+P23944+P43140).
T2 sequence (P15823 whole entry): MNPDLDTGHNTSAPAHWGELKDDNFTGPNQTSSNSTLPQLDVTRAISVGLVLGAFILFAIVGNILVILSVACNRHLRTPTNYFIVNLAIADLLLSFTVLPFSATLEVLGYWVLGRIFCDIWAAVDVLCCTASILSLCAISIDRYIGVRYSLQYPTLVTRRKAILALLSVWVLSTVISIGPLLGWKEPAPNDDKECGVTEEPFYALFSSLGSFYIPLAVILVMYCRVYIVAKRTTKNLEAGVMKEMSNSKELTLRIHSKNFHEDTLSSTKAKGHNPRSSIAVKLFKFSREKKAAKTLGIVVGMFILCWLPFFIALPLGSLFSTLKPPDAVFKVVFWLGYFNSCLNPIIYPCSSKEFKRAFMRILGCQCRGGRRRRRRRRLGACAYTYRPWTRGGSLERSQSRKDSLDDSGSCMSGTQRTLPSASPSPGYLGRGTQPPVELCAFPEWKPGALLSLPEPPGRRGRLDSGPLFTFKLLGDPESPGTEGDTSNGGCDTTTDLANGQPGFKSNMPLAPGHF
T2 sequence (P23944 whole entry): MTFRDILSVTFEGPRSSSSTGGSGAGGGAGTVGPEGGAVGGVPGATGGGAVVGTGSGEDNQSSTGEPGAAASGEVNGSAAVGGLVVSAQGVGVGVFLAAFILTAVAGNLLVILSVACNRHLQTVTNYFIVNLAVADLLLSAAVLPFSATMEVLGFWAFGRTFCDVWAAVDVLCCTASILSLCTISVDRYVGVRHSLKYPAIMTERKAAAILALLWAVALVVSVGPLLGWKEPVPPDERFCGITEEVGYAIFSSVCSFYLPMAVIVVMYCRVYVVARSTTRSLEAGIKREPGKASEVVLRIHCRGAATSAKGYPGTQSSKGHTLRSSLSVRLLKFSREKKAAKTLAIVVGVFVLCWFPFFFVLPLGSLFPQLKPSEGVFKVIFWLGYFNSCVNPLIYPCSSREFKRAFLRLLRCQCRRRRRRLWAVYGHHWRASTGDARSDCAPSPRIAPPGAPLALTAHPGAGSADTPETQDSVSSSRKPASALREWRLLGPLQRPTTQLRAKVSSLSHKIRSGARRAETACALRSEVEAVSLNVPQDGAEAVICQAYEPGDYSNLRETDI
T2 sequence (P43140 whole entry): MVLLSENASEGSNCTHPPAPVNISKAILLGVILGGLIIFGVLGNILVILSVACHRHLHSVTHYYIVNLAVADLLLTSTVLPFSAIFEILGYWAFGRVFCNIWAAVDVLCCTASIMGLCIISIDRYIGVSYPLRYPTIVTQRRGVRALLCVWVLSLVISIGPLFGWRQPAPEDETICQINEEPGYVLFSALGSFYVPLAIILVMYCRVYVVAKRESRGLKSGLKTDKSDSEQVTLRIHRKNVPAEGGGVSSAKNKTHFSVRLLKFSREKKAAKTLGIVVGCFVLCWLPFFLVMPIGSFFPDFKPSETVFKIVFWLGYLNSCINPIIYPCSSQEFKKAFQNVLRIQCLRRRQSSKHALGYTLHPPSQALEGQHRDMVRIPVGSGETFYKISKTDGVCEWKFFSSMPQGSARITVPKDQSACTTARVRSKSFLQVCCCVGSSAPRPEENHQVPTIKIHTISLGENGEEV
In words: Displacement of [3H]prazosin from Alpha-1 adrenergic receptor of rat cortex membranes. The test is classed as cell membranes, Membrane. In general terms: In a radioligand displacement assay an active substance lowers the binding of a labelled ligand.

As a reminder, the Ki is a dissociation constant, usually derived from enzyme kinetics or from competition with a known ligand. Lower therefore signals a stronger hold on the target.

In test [1], `CCc1cc2c(=O)n(N)c(SCCCN3CCN(c4ncccn4)CC3)nc2s1` registered a Selectivity of 207. The inhibition constant Ki is 9.4 nM in test [2] and 1946 nM in test [3].

On to `COc1ccccc1N1CCN(CCCSc2nc3sc4c(c3c(=O)n2N)CCC4)CC1`, for which, in test [1], the Selectivity amounted to 28. For the same molecule, the Ki in test [2] is 0.26 nM; in test [3] it was 7.39 nM.

Take `CCOc1ccccc1-c1nnc(SCCCN2CCN(c3ccccc3OC)CC2)s1`: the Selectivity in test [1] stood at 4.6. Moreover, the results for the Ki in test [2] and in test [3] were 6.84 nM and 31.5 nM, respectively.

Turning to `COc1ccccc1N1CCN(CCCSc2nc3sccc3c(=O)n2N)CC1`, the Selectivity in test [1] was 3.8. For the same molecule, the results for the Ki in test [2] and in test [3] were 0.65 nM and 2.48 nM, respectively.

Consider `Nn1c(SCCCN2CCN(c3ccccc3[N+](=O)[O-])CC2)nc2sccc2c1=O`, for which the Selectivity in test [1] came to 13. The Ki was determined as 3 nM in test [2] and 39.87 nM in test [3].

Consider `Cc1sc2nc(SCCCN3CCN(c4ccccc4[N+](=O)[O-])CC3)n(N)c(=O)c2c1C`, for which the Selectivity in test [1] turned out to be 53. Further, the values for the Ki in test [2] and in test [3] were 1.46 nM and 123 nM, respectively.

Regarding `Nn1c(SCCCN2CCN(c3ncccn3)CC2)nc2sccc2c1=O`, in test [1], the Selectivity is 73. The Ki in test [2] amounted to 5.06 nM; in test [3], 366.31 nM.

`COc1ccccc1N1CCN(CCCSc2nc(N)c3c(C)c(C)sc3n2)CC1`: in test [1], the Selectivity came out at 4.4. Also, the Ki in test [2] is 2.45 nM; in test [3], 10.8 nM.

In turn, `Cc1sc2nc(SCCCN3CCN(c4ncccn4)CC3)n(N)c(=O)c2c1C` gave a Selectivity in test [1] of 117. Also, the Ki in test [2] was 3.72 nM; in test [3] it was 434 nM.

In test [1], `CCOc1ccccc1-c1nnc(SCCCN2CCN(c3ccccc3[N+](=O)[O-])CC2)s1` registered a Selectivity of 3. Also, the values for the Ki in test [2] and in test [3] were 135 nM and 437 nM, respectively.

In test [1], `COc1ccccc1N1CCN(CCCSc2nc3sc(C)c(C)c3c(=O)n2N)CC1` returned a Selectivity of 39. Further, the Ki in test [2] stood at 0.16 nM; in test [3], 6.26 nM.

`CCCc1cc2c(=O)n(N)c(SCCCN3CCN(c4ccccc4OC)CC3)nc2s1` returned a Selectivity in test [1] of 14. Moreover, the values for the Ki in test [2] and in test [3] were 1.4 nM and 19.65 nM, respectively.

In test [1], `CCc1cc2c(=O)n(N)c(SCCCN3CCN(c4ccccc4[N+](=O)[O-])CC3)nc2s1` had a Selectivity of 20. Further, the Ki in test [2] turned out to be 9.69 nM; in test [3], 194.8 nM.

The molecule `CCc1cc2c(=O)n(N)c(SCCCN3CCN(c4ccccc4OC)CC3)nc2s1` gave a Selectivity in test [1] of 115. Besides, the Ki in test [2] turned out to be 0.19 nM; in test [3] it was 21.96 nM.
